Source: US20230263751A1, “Compositions and Methods of Use of beta-hydroxy-beta-methylbutyrate (HMB) and Chemotherapy Agents” (Metabolic Technologies, LLC, priority 2020, published 2023)

How the values were obtained:
[1] = system: C-reactive protein; assay: Serum C-reactive protein (Ultra Turbiquest Plus CRP kit); assay type: in vivo, Balb/c mice (Mus musculus); conditions: for Serum C-reactive protein levels: mice with EAC, 9 days, Control 1.63, Normal 0.07
Experimental: The determination of C-reactive protein (CRP) in serum was performed by the Ultra Turbiquest Plus® CRP kit, according to the manufacturer instructions.

[2] = system: IL-6; assay: IL-6 in gastrocnemius muscle by ELISA; assay type: in vivo, Balb/c mice (Mus musculus); conditions: in relation to the Control group
Experimental: (§1) For the determination of cytokines, the gastrocnemius muscle was homogenized in a RIPA buffer supplemented with 1% protease and 3% phosphatase inhibitors, in the proportion 1 mg tissue:10 μl buffer, followed by centrifugation of the homogenate at 12,000 g and 4° C., for 10 minutes. An aliquot of the supernatant was used to determine the cytokines IL-1β and IL-6 by ELISA immunoassay using DuoSet® Kit (R&D System, USA), according to the manufacturer recommendations.

[3] = system: IL-1β; assay: IL-1β in gastrocnemius muscle by ELISA; assay type: in vivo, Balb/c mice (Mus musculus)
Experimental: as §1

[4] = system: p53; assay: Western blotting of p53 in EAC cells; assay type: in vivo, Balb/c mice (Mus musculus); conditions: p53/actin
Experimental: (§2) Apoptotic markers were evaluated by Western blotting. EAC cells were washed with PBS and lysed in RIPA buffer supplemented with 1% protease and 3% phosphatase inhibitors. The proteins were further denatured in Laemmli buffer and equivalent amounts were subjected to SDS-PAGE electrophoresis, followed by electroblotting on PVDF membranes. The membranes were blocked and then incubated with the primary monoclonal antibodies: p53 (Santa Cruz Biotechnology, DO-1; sc-126), Bax (Santa Cruz Biotechnology, B-9; sc-7480) and BcL-xl (Santa Cruz Biotechnology, H-5; sc-8392), and subsequently incubated with peroxidase conjugated secondary antibodies (Dako and Chemicon). Immunodetection was performed using a chemiluminescence determination kit, and β-actin was used as a loading control. Images were obtained with the ChemiDoc MP (Bio Rad) system.

[5] = system: EAC cells; assay: Survival assessment of mice with EAC (Kaplan and Meier); assay type: in vivo, Balb/c mice (Mus musculus); conditions: for Mean survival time: mice with EAC, n=12, observation discontinued after 30 days, Control 16 days
From the text: (§3) In addition, after euthanasia, all ascitic fluid was collected to measure volume and weight. Finally, Balb/c mice (n=12) were chosen at random and kept alive to assess the effects of HMB, Doxo and Doxo+HMB on survival time according to Kaplan and Meier (1958); survival assessments were discontinued after 30 days.

[6] = system: EAC cells; assay: Tumor growth inhibition and morphological evaluation of mice with EAC; assay type: in vivo, Balb/c mice (Mus musculus); conditions: 9 days treatment
Experimental: Female (18 to 23 g weight, 60 days) Balb/c mice (Mus musculus) obtained from controlled reproduction carried out in the sectoral bioterium of the Federal University of Santa Catarina (Brazil), were kept in plastic cages under controlled environmental conditions (12 h light-dark cycle, 25±2° C., relative humidity 60%), receiving commercial feed and water ad libitum.
The moment before the tumor was inoculated, the abdominal circumference was measured. The treatments were administered intraperitoneally for 9 consecutive days. Twenty-four hours after the last treatment, all mice were weighed and their abdominal circumferences measured again. The inhibition (%) of tumour growth was calculated as follow: [(average in waist circumference of the treated group×100)/average in waist circumference of the control group]−100.
as §3

[7] = system: EAC cells; assay: Assessment of death type in harvested tumor cells (propidium iodide/acridine orange)
Experimental: The mice were divided into 5 groups (n=6): Normal (healthy animals), Control (saline), Doxo (1 mg/kg/day), HMB (617.3 mg calcium HMB/kg/day) and Doxo+HMB (1 mg/kg/day and 617.3 mg/kg/day, respectively). The animals belonging to the Control, Doxo, HMB and Doxo+HMB groups were inoculated with EAC cells (200 μL, 5×10^6 cells) by intraperitoneal injection and treatment of animals was started after 96 hours. The dose of HMB was defined based on the recommendation for adult men of 70 kg, that is, 3 g/day (supplementary form) [21].
Harvested tumor cells (5×10^6) were stained with 1 μL of a solution (1:1) of propidium iodide (100 μg/mL) and acridine orange (100 μg/mL). The samples were read by fluorescence microscopy on the green (excitation at 460 nm and emission at 520 nm) and red (excitation at 492 nm at emission at 620 nm) filters, and the results were expressed as percentage of viable (green), apoptotic (orange) and necrotic (red) cells [24].

[8] = Cachexia assessment (food intake, weight loss, muscle and fat mass) of mice with EAC; assay type: in vivo, Balb/c mice (Mus musculus); conditions: 9 days; for Average daily food intake: Control 2.17±0.69, Normal 3.30±0.60; for Brown adipose tissue mass / Dry weight soleus muscle / Mesenteric fat mass / Subcutaneous fat mass / Wet weight gastrocnemius muscle / Wet weight soleus muscle: mean ± SD, n=6
From the text: To determine average daily food intake, the weight of the feed consumed was divided by the number of animals in each cage. To evaluate the percentage of weight loss, the “initial weight” (before inoculation of the EAC), “final weight” (after 9 days of treatment) and “carcass weight” (final weight−weight of ascitic liquid) were considered according to standardized equation [27].
The soleus and gastrocnemius muscles were quickly removed and weighed on an analytical balance (wet mass). Soleus samples were used to determine the dry weight after 3 days at 60° C., and the gastrocnemius was kept at −80° C. for the determination of cytokines. The wet mass of the gastrocnemius and soleus muscle (mg) was normalized by the length of the tibia (mm) of the mice. Subcutaneous fat deposits, mesentery and brown adipose tissue were also removed and immediately weighed.

[9] = system: Bax/Bcl-xl; assay: Western blotting of Bax and Bcl-xl in EAC cells (Bax/Bcl-xl ratio); assay type: in vivo, Balb/c mice (Mus musculus)
Experimental: as §2, with “EAC cells were washed with PBS and lysed in RIPA buffer supplemented with 1% protease and 3% phosphatase inhibitors.” left out, “control.” for “control. Images were obtained with the ChemiDoc MP (Bio Rad) system.”

[10] = system: tumors injected into the peritoneal cavity; conditions: rats; cited from earlier work
[11] = system: COX-2; assay: COX-2 expression in EAC cells by Western blotting; assay type: in vivo, Balb/c mice (Mus musculus); conditions: COX-2/actin in EAC cells
Experimental: as §2
The COX-2 expression in EAC cells was assessed by Western blotting as described in item 2.2.3. Antibodies to COX-2 were purchased from Cell Signaling (#4842)

[12] = serum HMB levels; cited from earlier work
[13] = EAC cells harvested after 9 days treatment

Row | Compound | Serum C-reactive protein levels [1] [mg/L] | Reduction of IL-6 [2] [%] | Increase of p53 expression in relation to the Control group [4] [%] | Mean survival time [5] [days] | Average daily food intake [8] [g/day] | Brown adipose tissue mass [8] [mg/cm mouse length] | Dry weight soleus muscle [8] [mg/mm tibia length] | Mesenteric fat mass [8] [mg/cm mouse length] | Subcutaneous fat mass [8] [mg/cm mouse length] | Wet weight gastrocnemius muscle [8] [mg/mm tibia length] | Wet weight soleus muscle [8] [mg/mm tibia length] | also measured
1 | COc1cccc2c1C(=O)c1c(O)c3c(c(O)c1C2=O)C[C@@](O)(C(=O)CO)C[C@@H]3O[C@H]1C[C@H](N)[C@H](O)[C@H](C)O1 [Doxo, doxorubicin] | 2.39 | 43 | 20 | 26 | 2.22 ± 0.63 | 3.6 ± 1.7 | 0.1 ± 0.01 | 2.5 ± 0.6 | 2.2 ± 0.3 | 11.7 ± 0.2 | 0.7 ± 0.15 | Increase in C-reactive protein levels compared to controls ([1]; serum): 47%; Reduction of IL-1β content in relation to controls [3]: 6%; Surviving animals at the end of the observation period ([5]; n=12, 30 days): 3 animals; Inhibition of tumor growth ([6]; from waist circumference, in relation to the Control group, n=6): 42%; Reduction of body weight variation in relation to the Control group ([6]; mice with EAC): 39%; Reduction of volume of ascitic liquid in relation to the Control group ([6]; mice with EAC): 54%; Apoptotic cells [7, 13]: 4%; Necrosis (necrotic cells) [7, 13]: 36%; Viable cells [7, 13]: 60%; Percentage of death induced by each treatment ([7]; as restated in the discussion): 36%; Attenuation of weight loss in relation to controls ([8]; EAC caused 11% body weight loss): 54%; Increase of Bax/Bcl-xL ratio in relation to the Control [9]: 38%
2 | CC(C)(O)CC(=O)O [HMB, β-hydroxy-β-methylbutyrate] | 0.31 | 64 | 10 | 13.5 | 2.81 ± 1.05 | 3.2 ± 0.3 | 0.1 ± 0.04 | 3.0 ± 0.8 | 1.9 ± 1.1 | 8.9 ± 0.5 | 0.8 ± 0.2 | Improved survival [10]: 42%; Reduction of COX-2 expression compared to controls [11]: 4%
3 | CC(C)(O)CC(=O)O [free acid form of HMB, β-hydroxy-β-methylbutyric acid] |  |  |  |  |  |  |  |  |  |  |  | Absorption compared with CaHMB [12]: more rapidly absorbed than CaHMB
